The source of these data is patent publication US20190381071A1, “METHODS AND COMPOSITIONS FOR TREATING AND/OR PREVENTING THE PROGRESSION AND/OR ONSET OF AGE-RELATED NEURODEGENERATION” (Enterin, Inc., priority 2018, published 2019).

Entries after “also recorded” stand apart in the source; their conditions may differ.

Data set [1] is described as follows: Brain localisation of radioactive Aminosterol 1436 after IV or ICV administration (FIG. 1). The conditions noted are these: radioactive compound, rat, IV via peripheral vein or injected into 3rd ventricle (ICV). The format is in vivo. From the text:
The exact mechanism by which Aminosterol 1436 achieves its effect on preventing, delaying onset, and/or treating neurodegeneration, delaying maturity, retarding aging, and increasing potential lifespan is not known. However, without being bound by theory, Applicant theorizes that the effect of Aminosterol 1436 is likely in part due to the drug's effects on the hypothalamus within the brain of the animal.

The conditions of data set [2]: U.S. Pat. No. 6,143,738; Ahima et al. (2002); cited from earlier work.
Another data set deals with T1, phosphatase PTP1B (Homo sapiens, UniProt P18031).
T1 sequence (P18031 1-435): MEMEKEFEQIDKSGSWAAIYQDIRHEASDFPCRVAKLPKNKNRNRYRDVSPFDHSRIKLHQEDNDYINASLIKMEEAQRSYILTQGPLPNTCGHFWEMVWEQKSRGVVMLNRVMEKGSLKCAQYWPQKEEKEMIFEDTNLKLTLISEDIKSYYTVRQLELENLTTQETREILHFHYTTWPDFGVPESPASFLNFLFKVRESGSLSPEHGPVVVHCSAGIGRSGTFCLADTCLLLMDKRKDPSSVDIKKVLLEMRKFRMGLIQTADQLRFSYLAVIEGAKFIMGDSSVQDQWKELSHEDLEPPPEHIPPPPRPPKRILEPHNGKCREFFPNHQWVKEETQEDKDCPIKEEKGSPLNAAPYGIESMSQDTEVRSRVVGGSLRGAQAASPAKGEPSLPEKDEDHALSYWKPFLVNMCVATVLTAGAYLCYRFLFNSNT
The note with it: Lantz et al., 2010; cited from earlier work.

In a further data set the test system is B6D2F1 (BDF1) mice. The data set can be described thus: Dose response of growth delay in BDF1 mice (Example 1, FIG. 2). The format is in vivo. The note with it: for age at which animals reached maturity: male BDF1 mice, controls 120 days; for delay in reaching maturity, as measured by end weight: vs control. On the procedure:
While all animals reached the mature weight of about 40 grams, the control animals reached maturity at 120 days, and the animals that received 5 and 10 mg/kg of Aminosterol 1436 reached maturity at 150 and 255 days, respectively.
An experiment was conducted to explore the dose response to a delay in growth of B6D2F1 (BDF1) mice to Aminsoterol 1436.
30 day old male BDF1 mice received either vehicle or Aminosterol 1436 intraveneously (IV) at 5 mg/kg or 10 mg/kg (n=15 for each treatment arm) every 3 days until 51 days of age. The Aminosterol 1436 was administered as a aqueous solution in water. BDF1 mice are available from Charles River Laboratories. The animals were fed standard lab chow, offered ad libitum. The animals were weighed and body length measured every 5 days.
However, while the control animals reached maturity at 120 days, the animals that received 5 mg/kg of Aminosterol 1436 reached maturity at 150 days, corresponding to a 25% delay in reaching maturity, as measured by end weight. […] Most importantly, both treated and untreated animals reached normal adult dimensions, albeit at different rates.

The test system of another data set is adult mouse. The data set can be described thus: Neuroregeneration in adult mouse brain. The format is in vivo. From the text:
The hypothalamus is of particular interest because it happens to be the site of localization of Aminosterol 1436 in the brain.

A further data set concerns HIV. The note with it: tissue culture; U.S. Pat. No. 5,763,430; cited from earlier work.
The subject of the next data set is C57BL/6 males. The data set can be described thus: Growth delay in C57BL/6 mice (Example 2, FIG. 3). The note with it: for weight: 10 mg/kg i.p. every 3 days for two doses. The format is in vivo. As for the experimental part:
Animals were then weighed and body length measured once weekly for a period of 40 days.
An experiment was conducted to determine whether treatment of animals with Aminosterol 1436 would delay growth of the animal.
C57BL/6 males (12-16 grams) were administered either vehicle or 10 mg/kg (i.p.) of Aminosterol 1436 every 3 days for two doses, for a total of 20 mg/kg over a 6 day period. The mice were about 3 weeks old, and there were 10 mice/arm. The animals were weighed and body length measured once weekly for a period of 40 days.
The results shown in FIG. 3 indicate that growth rates of the animals were slowed upon administration of Aminosterol 1436, which is consistent with the results shown in FIG. 2 and described in Example 1.

Take `CC(C)[C@@H](CC[C@@H](C)[C@H]1CC[C@H]2[C@@H]3[C@H](O)C[C@H]4C[C@@H](NCCCNCCCCNCCCN)CC[C@]4(C)[C@H]3CC[C@]12C)OS(=O)(=O)O` [Aminosterol 1436, trodusquemine]: the accumulation in brain entry in data set [1] is “accumulation of Aminosterol 1436 within the centers of the brain that control growth, maturation, and senescence; also recorded: accumulates within the centers of the brain that control growth, maturation and senescence”. Further, in data set [2], the “appetite suppression and weight loss” value is “potent appetite suppression and promotion of dose-dependent weight loss”. In addition, at phosphatase PTP1B, the “inhibition of PTP1B” value is “inhibit the phosphatase PTP1B”. Besides, the “growth rate slower than the controls (by increasing weight)” value in the data set on B6D2F1 (BDF1) mice (5 mg/kg IV) is on record as “about 30%”. Also, the “age at which animals reached maturity” value with B6D2F1 (BDF1) mice (5 mg/kg IV every 3 days from 30 to 51 days of age) is 150 days; in the data set on B6D2F1 (BDF1) mice (10 mg/kg IV every 3 days from 30 to 51 days of age) it was 255 days. The results for the “delay in reaching maturity, as measured by end weight” value in the data set on B6D2F1 (BDF1) mice (5 mg/kg IV) and in the data set with B6D2F1 (BDF1) mice (10 mg/kg IV) were 25% and 112.5%, respectively. Also, the “growth rate slowed (by increasing weight)” value with B6D2F1 (BDF1) mice (10 mg/kg IV) is 50%. In the data set with B6D2F1 (BDF1) mice (5 and 10 mg/kg IV, data not shown), the linear growth entry was “slowed to a corresponding degree”. The mature weight reached result in the data set on B6D2F1 (BDF1) mice (all animals (5 mg/kg, 10 mg/kg and control)) was “about 40 grams”. In the data set with adult mouse, the neuroregeneration entry is on record as “stimulates neuroregeneration”. The “number of cells in brain areas” value in the data set with adult mouse (subependymal zone, granular layers of olfactory bulb, medial and lateral hypothalamus, thalamus) is reported as “increase”. The “antiviral activity against HIV” value with HIV is recorded as “exhibits antiviral activity against HIV”. Moreover, the weight worked out at 12 g in the data set with C57BL/6 males (Day 0, control 16 g) and 11 g in the data set with C57BL/6 males (Day 40, control 24 g). The same compound showed a decrease in weight with C57BL/6 males (Day 0 to Day 40, 10 mg/kg i.p. x 2, control increase of 50%) of 8.3%.
Regarding `CC(C)[C@@H](CC[C@@H](C)[C@H]1CC[C@H]2[C@@H]3[C@H](O)C[C@H]4C[C@@H](NCCCNCCCCN)CC[C@]4(C)[C@H]3CC[C@]12C)OS(=O)(=O)O` [squalamine, reference compound], the “appetite suppression and weight loss” value in data set [2] is given as “not shared with squalamine”.
